Measurements as given in patent publication US12043613B2, “Inhibitors of SARM1” (Disarm Therapeutics, Inc., priority 2020, dated 2024).

Target: T1, SARM1 (ARM-SAM-TIR, full length SARM1) (Homo sapiens, UniProt Q6SZW1)
T1 sequence (Q6SZW1 with tags, fused parts or gaps): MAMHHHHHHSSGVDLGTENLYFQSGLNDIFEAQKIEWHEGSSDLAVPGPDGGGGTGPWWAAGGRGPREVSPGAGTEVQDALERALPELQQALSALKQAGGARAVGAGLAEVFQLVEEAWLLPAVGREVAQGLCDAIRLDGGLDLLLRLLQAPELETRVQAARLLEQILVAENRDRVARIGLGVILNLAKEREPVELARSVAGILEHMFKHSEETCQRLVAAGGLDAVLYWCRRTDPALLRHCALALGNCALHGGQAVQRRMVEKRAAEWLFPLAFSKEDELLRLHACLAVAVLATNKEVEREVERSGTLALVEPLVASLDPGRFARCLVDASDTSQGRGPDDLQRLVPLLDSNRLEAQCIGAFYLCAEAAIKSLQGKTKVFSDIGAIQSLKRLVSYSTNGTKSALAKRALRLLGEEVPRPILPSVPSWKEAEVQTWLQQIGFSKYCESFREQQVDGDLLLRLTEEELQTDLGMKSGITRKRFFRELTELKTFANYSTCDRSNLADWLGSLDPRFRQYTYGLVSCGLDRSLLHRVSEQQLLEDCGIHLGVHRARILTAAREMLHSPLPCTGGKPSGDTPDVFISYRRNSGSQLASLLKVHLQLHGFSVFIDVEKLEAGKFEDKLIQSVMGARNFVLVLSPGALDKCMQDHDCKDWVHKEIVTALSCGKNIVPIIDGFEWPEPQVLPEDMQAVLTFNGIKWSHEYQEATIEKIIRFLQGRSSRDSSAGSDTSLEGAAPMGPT
Test: biochemical
Details: SARM1 IC50 (nM), ARM-SAM-TIR lysate 5 μg/mL from NRK1-HEK293T cells, 2 h pre-incubation, 5 uM NAD+, 2 hr room temperature
Protocol: This assay makes use of full length SARM1, which encompasses the ARM, SAM and TIR domains.
Preparation of ARM-SAM-TIR lysate (STL)
NRK1-HEK293T cells were seeded onto 150 cm^2 plates at 20×10^6 cells per plate. The next day, the cells were transfected with 15 g ARM-SAM-TIR expression plasmid, SEQ ID NO: 1.
The cultures were supplemented with 1 mM NR at time of transfection to minimize toxicity from ARM-SAM-TIR overexpression. Forty-eight hours after transfection, cells were harvested, pelleted by centrifugation at 1,000 rpm (Sorvall ST 16R centrifuge, Thermo Fisher), and washed once with cold PBS (0.01 M phosphate buffered saline NaCl 0.138 M; KCl 0.0027 M; pH 7.4). The cells were resuspended in PBS with protease inhibitors (cOmplete™ protease inhibitor cocktail, Roche product #11873580001) and cell lysates were prepared by sonication (Branson Sonifer 450, output=3, 20 episodes of stroke). The lysates were centrifuged (12,000×g for 10 min at 4° C.) to remove cell debris and the supernatants (containing ARM-SAM-TIR protein) were stored at −80° C. for later use in the in vitro ARM-SAM-TIR NADase assay (see below). Protein concentration was determined by the Bicinchoninic (BCA) method and used to normalize lysate concentrations.
ARM-SAM-TIR IC50 assay of Formula I compounds.
The enzymatic assay was performed in a 384-well polypropylene plate in Dulbecco's PBS buffer in a final assay volume of 20 μL. ARM-SAM-TIR lysate with a final concentration of 5 μg/mL was pre-incubated with the respective compound at 1% DMSO final assay concentration over 2h at room temperature. The reaction was initiated by addition of 5 uM final assay concentration of NAD+ as substrate. After a 2 hr room temperature incubation, the reaction was terminated with 40 μL of stop solution of 7.5% trichloroactetic acid in acetonitrile. The NAD+ and ADPR concentrations were analyzed by a RapidFire High Throughput Mass Spectrometry System (Agilent Technologies, Santa Clara, Calif.) using an API4000 triple quadrupole mass spectrometer (AB Sciex Framingham, Mass.).

Compound | IC50
O=C1C(Cc2ccc(Cl)cc2)CNCCN1c1nc(-c2ccncc2)n[nH]1 (centres unmarked) [Compound I-38] | 501 to 1000 nM
O=C1C(Cc2ccc(F)nc2)CCN1c1cc(-c2ccncc2)n[nH]1 (single isomer, unassigned) [I-67* (peak 2)] | < 50 nM
N#Cc1cc(CC2CCN(c3cc(-c4ccncc4)n[nH]3)C2=O)ccc1F (centres unmarked) [Compound I-116] | 101 to 500 nM
N#Cc1c(-c2ccncc2)n[nH]c1N1CCCC(Cc2ccc(Cl)nc2)C1=O (centres unmarked) [Compound I-68] | 101 to 500 nM
O=C1C(Cc2ccc(F)nc2)CCCN1c1[nH]nc(-c2ccncc2)c1F (centres unmarked) [Compound I-27] | 101 to 500 nM
O=C1C(Cc2ccc(Cl)c(F)c2)CCN1c1nnc(-c2ccncc2)[nH]1 (centres unmarked) [Compound I-8] | < 50 nM
O=C1C(Cc2ccc(F)nc2)CCN1c1[nH]nc(-c2ccncc2)c1Cl (centres unmarked) [Compound I-32] | < 50 nM
O=C1C(Cc2cnc(Cl)c(F)c2)CCN1c1cc(-c2ccncc2)n[nH]1 (centres unmarked) [Compound I-65] | < 50 nM
N#Cc1ccc(CC2CCN(c3cc(-c4ccncc4)n[nH]3)C2=O)cc1 (centres unmarked) [Compound I-114] | 101 to 500 nM
Cc1c(-c2ccncc2)n[nH]c1N1CCC(Cc2ccc(F)c(F)c2)C1=O (centres unmarked) [Compound I-49] | 51 to 100 nM
O=C1C(Cc2ccc(Cl)cc2)CCN1c1nnc(-c2ccncc2)[nH]1 (single isomer, unassigned) [I-4* (peak 1)] | < 50 nM
N#Cc1ccc(CC2CCCN(c3cc(-c4ccncc4)n[nH]3)C2=O)cc1 (centres unmarked) [Compound I-98] | < 50 nM
O=C1C(Cc2ccc(Cl)c(F)c2)CCN1c1cc(-c2ccncc2)n[nH]1 (centres unmarked) [Compound I-14] | < 50 nM
O=C1C(Cc2ccc(C(F)(F)F)nc2)CCN1c1cc(-c2ccncc2)n[nH]1 (centres unmarked) [Compound I-112] | 101 to 500 nM
N#Cc1cc(CC2CCCN(c3cc(-c4ccncc4)n[nH]3)C2=O)ccc1F (centres unmarked) [Compound I-100] | < 50 nM
O=C1C(Cc2ccc(C(F)(F)F)nc2)CCCN1c1cc(-c2ccncc2)n[nH]1 (centres unmarked) [Compound I-96] | 101 to 500 nM
O=C1C(Cc2ccc(Cl)cc2)CCCN1c1nnc(-c2ccncc2)[nH]1 (single isomer, unassigned) [I-5* (peak 1)] | < 50 nM
[2H]C([2H])(c1ccc(Cl)nc1)C1([2H])C(=O)N(c2cc(-c3ccncc3)n[nH]2)C([2H])([2H])C([2H])([2H])C1([2H])[2H] (single isomer, unassigned) [I-79* (peak 1)] | < 50 nM
N#Cc1cc(CC2CCN(c3cc(-c4ccncc4)n[nH]3)C2=O)ccc1Cl (centres unmarked) [Compound I-118] | 101 to 500 nM
N#Cc1ccc(CC2CCN(c3[nH]nc(-c4ccncc4)c3F)C2=O)cc1F (centres unmarked) [Compound I-25] | 101 to 500 nM
O=C1C(Cc2cnc(Cl)c(F)c2)CCN1c1cc(-c2ccncc2)n[nH]1 (single isomer, unassigned) [I-65* (peak 1)] | < 50 nM
[2H]C1(Cc2ccc(F)nc2)C(=O)N(c2cc(-c3ccncc3)n[nH]2)C([2H])([2H])C([2H])([2H])C1([2H])[2H] (centres unmarked) [Compound I-70] | 51 to 100 nM

Compound | IC50
O=C1C(Cc2ccc(F)c(F)c2)CCN1c1nnc(-c2ccncc2)[nH]1 (centres unmarked) [Compound I-11] | < 50 nM
O=C1C(Cc2ccc(F)nc2)CCN1c1cc(-c2ccncc2)n[nH]1 (single isomer, unassigned) [I-67* (peak 1)] | 51 to 100 nM
N#Cc1ccc(CC2CCCN(c3cc(-c4ccncc4)n[nH]3)C2=O)cn1 (centres unmarked) [Compound I-94] | 101 to 500 nM
Cc1c(-c2ccncc2)n[nH]c1N1CCC(Cc2cnc(Cl)c(F)c2)C1=O (single isomer, unassigned) [I-41* (peak 1)] | 101 to 500 nM
O=C1C(Cc2ccc(Cl)cc2)OCCN1c1nnc(-c2ccncc2)[nH]1 (centres unmarked) [Compound I-44] | < 50 nM
O=C1N(c2nnc(-c3ccncc3)[nH]2)CCC1(Cc1ccc(F)c(F)c1)Cc1ccc(F)c(F)c1 [Compound I-12] | > 1000 nM
N#Cc1ccc(CC2CCN(c3nnc(-c4ccncc4)[nH]3)C2=O)cc1F (single isomer, unassigned) [I-26* (peak 1)] | 101 to 500 nM
O=C1C(Cc2ccc(F)nc2)CCN1c1cc(-c2ccncc2)n[nH]1 (centres unmarked) [Compound I-67] | < 50 nM
O=C1C(Cc2ccc(Cl)nc2)CCCCN1c1cc(-c2ccncc2)n[nH]1 (single isomer, unassigned) [I-40* (peak 2)] | 101 to 500 nM
Cc1c(-c2ccncc2)n[nH]c1N1CCC(Cc2ccc(Cl)nc2)C1=O (centres unmarked) [Compound I-48] | 101 to 500 nM
O=C1C(Cc2ccc(F)cc2)CCN1c1nnc(-c2ccncc2)[nH]1 (single isomer, unassigned) [I-7* (peak 1)] | 101 to 500 nM
O=C1C(Cc2ccc(F)nc2)CCN1c1[nH]nc(-c2ccncc2)c1F (centres unmarked) [Compound I-33] | < 50 nM
O=C1C(Cc2ccc(Cl)nc2)NCN1c1cc(-c2ccncc2)n[nH]1 (centres unmarked) [Compound I-35] | 501 to 1000 nM
O=C1C(Cc2ccc(Cl)nc2)OCCN1c1nnc(-c2ccncc2)[nH]1 (centres unmarked) [Compound I-58] | 101 to 500 nM
CC1(Cc2ccc(F)c(F)c2)CCN(c2nc(-c3ccncc3)n[nH]2)C1=O (centres unmarked) [Compound I-43] | > 1000 nM
O=C1C(Cc2ccc(Cl)cc2)CCCN1c1cc(-c2ccncc2)n[nH]1 (centres unmarked) [Compound I-19] | < 50 nM
O=C1C(Cc2ccc(Cl)nc2)CNCN1c1cc(-c2ccncc2)n[nH]1 (centres unmarked) [Compound I-64] | > 1000 nM
O=C1C(Cc2ccc(Cl)cc2)OCCN1c1cc(-c2ccncc2)n[nH]1 (single isomer, unassigned) [I-47* (peak 1)] | 51 to 100 nM
O=C1C(Cc2ccc(Cl)nc2)CCCCN1c1cc(-c2ccncc2)n[nH]1 (single isomer, unassigned) [I-40* (peak 1)] | > 1000 nM
N[C@H]1CC(Cc2ccc(Cl)nc2)C(=O)N(c2nnc(-c3ccncc3)[nH]2)C1 (single isomer, unassigned) [Compound I-61] | > 1000 nM
CC1(Cc2ccc(Cl)nc2)CCCN(c2nnc(-c3ccncc3)[nH]2)C1=O (centres unmarked) [Compound I-63] | 501 to 1000 nM
O=C1C(Cc2ccc(F)c(F)c2)CCN1c1nnc(-c2ccncc2)[nH]1 (single isomer, unassigned) [I-11* (peak 2)] | 51 to 100 nM

Compound | IC50
O=C1C(Cc2ccc(Cl)c(F)c2)CCCN1c1cc(-c2ccncc2)n[nH]1 (centres unmarked) [Compound I-20] | < 50 nM
O=C1C(Cc2ccc(F)nc2)CCCN1c1[nH]nc(-c2ccncc2)c1Cl (centres unmarked) [Compound I-28] | > 1000 nM
O=C1C(Cc2ccc(Cl)nc2)CCCN1c1[nH]nc(-c2ccncc2)c1Cl (centres unmarked) [Compound I-29] | > 1000 nM
O=C1C(Cc2ccc(Cl)nc2)CCN1c1nnc(-c2ccncc2)[nH]1 (single isomer, unassigned) [I-9* (peak 1)] | 101 to 500 nM
O=C1C(Cc2ccc(Cl)cc2)CNCCN1c1nc(-c2ccncc2)n[nH]1 (single isomer, unassigned) [I-38* (peak 1)] | 501 to 1000 nM
Cc1c(-c2ccncc2)n[nH]c1N1CCC(Cc2ccc(F)c(F)c2)C1=O (single isomer, unassigned) [I-49* (peak 2)] | 51 to 100 nM
O=C1C(Cc2cnc(Cl)c(F)c2)CCCN1c1cc(-c2ccncc2)n[nH]1 (centres unmarked) [Compound I-66] | < 50 nM
[2H]C([2H])(c1ccc(Cl)nc1)C1([2H])C(=O)N(c2cc(-c3ccncc3)n[nH]2)C([2H])([2H])C([2H])([2H])C1([2H])[2H] (centres unmarked) [Compound I-79] | < 50 nM
N#Cc1ccc(CC2CCN(c3cc(-c4ccncc4)n[nH]3)C2=O)cc1F (centres unmarked) [Compound I-37] | 51 to 100 nM
N#Cc1c(-c2ccncc2)n[nH]c1N1CCC(Cc2ccc(Cl)cc2)C1=O (centres unmarked) [Compound I-52] | < 50 nM
O=C1C(Cc2ccc(F)nc2)CCN1c1[nH]nc(-c2ccncc2)c1Cl (single isomer, unassigned) [I-32* (peak 1)] | 51 to 100 nM
O=C1C(Cc2ccc(Cl)nc2)CCN1c1nnc(-c2ccncc2)[nH]1 (single isomer, unassigned) [I-9* (peak 2)] | 51 to 100 nM
N#Cc1ccc(CC2CCN(c3nc(-c4ccncc4)n[nH]3)C2=O)cc1 (centres unmarked) [Compound I-115] | 501 to 1000 nM
O=C1C(Cc2ccc(Cl)nc2)CCCN1c1[nH]nc(-c2ccncc2)c1F (centres unmarked) [Compound I-31] | 101 to 500 nM
O=C1C(Cc2ccc(F)c(F)c2)CCN1c1cc(-c2ccncc2)n[nH]1 (centres unmarked) [Compound I-16] | < 50 nM
O=C1C(Cc2ccc(F)nc2)CCN1c1nnc(-c2ccncc2)[nH]1 (single isomer, unassigned) [I-39* (peak 1)] | 101 to 500 nM
O=C1C(Cc2cnc(Cl)c(F)c2)CCCN1c1cc(-c2ccncc2)n[nH]1 (single isomer, unassigned) [I-66* (peak 2)] | 101 to 500 nM
O=C1C(Cc2ccc(Cl)nc2)CCN1c1cc(-c2ccncc2)n[nH]1 (centres unmarked) [Compound I-17] | < 50 nM
N#Cc1c(-c2ccncc2)n[nH]c1N1CCC(Cc2ccc(F)c(F)c2)C1=O (centres unmarked) [Compound I-53] | 51 to 100 nM
O=C1C(Cc2ccc(F)c(F)c2)CCN1c1cc(-c2ccncc2)n[nH]1 (single isomer, unassigned) [I-16* (peak 1)] | < 50 nM
O=C1C(Cc2ccc(Cl)cc2)CCCN1c1nnc(-c2ccncc2)[nH]1 (centres unmarked) [Compound I-5] | < 50 nM
